One substance from US20070054868A1, “Synergistic polyphenol compounds, compositions thereof, and uses thereof” (The Trustees of Columbia University in the City of New York, priority 2005, published 2007) can be followed below.

The test system of one experiment is HT29 cells. Put plainly: Filipin staining of plasma membrane cholesterol. Type of experiment: cell-based, human. Here is the method: (§1) These effects were detected with as little as […] of EGCG, and within 5 minutes. Phosphorylation of EGFR, ERK1, ERK2, and AKT were suppressed in cells treated with methyl-β-cyclodextrin, which depletes plasma membrane cholesterol. […] In addition, the inhibitory effect of EGCG on phosphorylation of EGFR was not blocked by the addition of cholesterol on the growth medium. These findings provide evidence that EGCG can alter membrane domain organization in colon cancer cells ant that this is not due to cholesterol depletion. It was noted that pre-treatment of the cells with EGCG or Poly E inhibited the binding of Alexa 488-labeled EGF to the cell surface receptor EGFR.

Another experiment deals with IGFBP-3. Kind of experiment: Production of IGFBP-3 in HepG2 cells. Particulars: 20 μg/mL. The class given is cell-based, human. Here is the method: The cells were treated with […] EGCG at 0, 3, 6, 12, 24 and 48 hours, and cell extracts were examined by Western blot analysis using the respective antibodies, or were examined by semiquantitative RT-PCR analysis using IGFBP-3 or IGF-1 specific primers.
Using the MTT cell proliferation assay described in Example 21, and substituting HepG2 human liver cancer cells in place of SW837 cells, the effects of EGCG (20 μg/mL), an illustrative Synergistic Polyphenol Compound, on the production of IGF-1, IGF-2 and IGFBP-3 was determined. […] Accordingly, the Synergistic Polyphenol Compounds are useful for treating or preventing liver cancer.

The next experiment deals with p-HER2. Kind of experiment: Western blot analysis in SW837 cells. The class given is cell-based, human. From the text: (§2) Total cellular protein was extracted and equivalent amounts of protein can be determined by western blot analysis using the methods described in Suzui, et al., Cancer Res., 62:3997-4006 (2002). The primary antibodies for several proteins are described in Masuda et al., Clin Cancer Res., 7:4220-4229 (2001); Masuda et al., Clin Cancer Res., 9:3486-3491 (2003); and Shimizu et al., Clin Cancer Res., 11:2735-2746 (2005). The primary antibodies for HER3 (2F12) and COX-2 (PG27) were purchased from Upstate Cell Signaling Solutions (Charlottesville, Va.) and Oxford Biochemical Research (Oxford, Mich.), respectively. To examine the levels of expression of the phosphorylated (i.e. activated) form of the HER3 protein (p-HER3), cellular lysates (1 mg/mL) were incubated with 4 μg anti-HER3 antibody overnight at 4° C. with slow agitation, and immune complexes were then precipitated by adding protein A/G agarose (sc-2003, Santa Cruz Biotechnology, Santa Cruz, Calif.). After incubating for 2 hours at 4° C., the beads were washed with lysis buffer, and bound proteins were eluted into the sample buffer and subjected to western blot analysis, as described above. The p-HER3 protein was then detected by using an anti-phospho-tyrosine antibody (PY-20-HRP, BD Transduction Laboratories, San Diego, Calif.). An antibody to actin was used as a loading control. Each membrane was developed using an ECL-enhanced chemiluminescence system (Amersham Biosciences, Piscataway, N.J.).
(Immunoblotting shows a protein as a band on a membrane.)

A further experiment has as its system p-Akt. Put plainly: Western blot analysis in SW837 cells. Particulars: 20 μg/mL, at 6 hours. The class given is cell-based, human.
Text: as §2

In a further experiment the test system is COX-2 protein. Put plainly: Western blot analysis in SW837 cells. The note with it: for cellular level of the COX-2 protein: 20 μg/mL. Type of experiment: cell-based, human.
Text: as §2

A further experiment concerns p-ERK. Kind of experiment: Western blot analysis in SW837 cells. Type of experiment: cell-based, human. The note with it: 20 μg/mL, at 12 hours.
Text: as §2

Another experiment deals with Bcl-xL. Kind of experiment: Western blot analysis in SW837 cells. The class given is cell-based, human. The note with it: 1.0 μg/mL, 96 hours.
Text: as §2

In a further experiment the test system is p-EGFR. Kind of experiment: Western blot analysis in SW837 cells. Type of experiment: cell-based, human.
Text: as §2

In experiment [1] the test system is EGFR, HER2, HER3, Akt and ERK. Kind of experiment: Western blot analysis in SW837 cells, total levels of the respective proteins. The class given is cell-based, human. The note with it: 20 μg/mL, during the time course.
Text: as §2, with “Each membrane was developed using an ECL-enhanced chemiluminescence system (Amersham Biosciences, Piscataway, N.J.).” left out

The test system of experiment [2] is SW837 human colon cancer cells. Put plainly: Cell proliferation assay (Coulter Counter). Type of experiment: cell-based. The note with it: 1.0 μg/mL, 96 hours. Here is the method: Thirty thousand SW837 human colon cancer cells were seeded into multiple 35-mm diameter dishes in DFI0 medium, and 24 hours later the cells were treated with EGCG (0, 1.0, or 20 μg/mL) for 96 hours, during which time, the medium and drugs were not changed. As a control, the cells were treated with 0.1% DMSO. Every 24 hours, and for a total time of 96 hours, replicate plates of cells were washed with PBS and the attached cells were collected by trypsinization. The numbers of cells in replica plates were then counted using a Coulter Counter (Beckman Coulter Co., Fullerton, Calif.) as described in Shimizu et al., Clin. Cancer Res., 10:1130-1140 (2004).

In a further experiment the test system is COX-2 mRNA. Put plainly: Semiquantitative RT-PCR analysis in SW837 cells. Type of experiment: cell-based, human. Particulars: 20 μg/mL. Here is the method: RNA extraction and semiquantitative RT-PCR analysis were performed using the methods described in Suzui, et al., Cancer Res., 62:3997-4006 (2002). Total RNA was isolated from SW837 human colon cancer cells using Trizol reagent (Invitrogen) according to the manufacturer's instructions. cDNA was amplified from 1 μg of total RNA using SuperScript one-step RT-PCR with the platinum Taq system (Invitrogen). PCR was conducted for 25 cycles in a thermal controller (Programmable Thermal Controller; MJ Research Inc., Watertown, Mass.). The COX-2 specific primer sets […]-2 ([NT]) and […]-2 ([NT]) were designed using the sequence described in Hla et al., Proc. Natl. Acad. Sci. USA, 89:7384-7388 […]. Actin specific primer sets and the amplification cycle conditions were as described in Suzui, et al., Cancer Res., 62:3997-4006 (2002). The intensities of mRNA bands were quantified using NIH Image software version 1.62.

The subject of experiment [3] is SW837 human colon cancer cells. Put plainly: DNA fragmentation assay (Cell Death Detection ELISA), apoptosis. Type of experiment: cell-based. The method, then: SW837 human colon cancer cells (5.0×10^5 cells/6-cm diameter dish) were treated with EGCG (1.0 or 20 μg/mL) for 48 or 96 hours, and samples were then prepared. Control cells were treated only with DMSO. The extent of DNA fragmentation at time 0 hours was set to 1 and increases expressed as fold activation.
(In general: An ELISA detects its analyte on a solid surface through an enzyme-linked reagent.)

Experiment [4] relates to EGFR, ERK1, ERK2, and AKT. Put plainly: Phosphorylation of signaling proteins in HT29 cells. Type of experiment: cell-based, human. Here is the method: as §1

With (−)-epigallocatechin gallate, the “effects on plasma membrane properties versus cholesterol depletion (filipin staining)” value with HT29 cells was “not associated with cholesterol depletion”. Also, the “production of IGFBP-3” value in the experiment on IGFBP-3 is on record as “increased the production”. In addition, the “levels of the p-HER2 protein” value in the experiment with p-HER2 (1.0 μg/mL, 96 hours) is reported as “decrease”; in the experiment on p-HER2 (20 μg/mL, within 6 hours), “marked decrease”. Moreover, the “levels of the p-Akt protein” value in the experiment with p-Akt is given as “marked decreases”. For the same substance, the “levels of the COX-2 protein” value with COX-2 protein (1.0 μg/mL, 96 hours) is recorded as “decrease”. Also, the entries for the “cellular level of the COX-2 protein” value in the experiment on COX-2 protein (after 12 to 24 hours) and in the experiment with COX-2 protein (at 48 hours) were “marked decrease” and “almost undetectable”, respectively. In addition, the “levels of the p-ERK protein” value in the experiment with p-ERK is listed as “marked decreases”. Also, the “levels of the Bcl-xL protein” value in the experiment on Bcl-xL is “decrease”. Moreover, the “levels of the p-EGFR protein” value was “decrease” in the experiment on p-EGFR (1.0 μg/mL, 96 hours) and “marked decrease” with p-EGFR (20 μg/mL, within 6 hours). Moreover, the “total levels of the respective proteins” value in experiment [1] is recorded as “no significant changes”. Also, in experiment [2], the inhibition of growth result is recorded as “about 55%”. The “cellular level of the COX-2 mRNA” value is recorded as “marked decrease” in the experiment on COX-2 mRNA (at 48 hours) and “progressive decrease” with COX-2 mRNA (beginning at about 6 hours). Moreover, the “apoptosis (DNA fragmentation)” value in experiment [3] (1.0 μg/mL, 96 hours) is recorded as “significant increase”; in experiment [3] (20 μg/mL, 48 hours), “induction of apoptosis”. Further, in experiment [4], the “inhibitory effect on phosphorylation of EGFR on addition of cholesterol to the growth medium” value was “not blocked”.
